One may read the EC50 as the concentration that produces a half-maximal response.

Among the data in ChEMBL document CHEMBL5727273, “Heteroaryldiazepine derivatives as RSV inhibitors” (2019) are EC50 values, retold here.

The assay can be described thus: RSV assay: Following extensive parameter testing, the final assay is run as follows: HEp-2 cells are seeded into the inner 60 wells of a 96-well plate at 8,000 cells per well in a volume of 50 μL using Growth Media (DMEM without phenol red, 1% L-Glut, 1% Penn/Strep, 1% nonessential amino acids, 10% FBS). 2-fold serial dilutions of control and test compounds are added to the wells in duplicate in a total volume of 25 μL. Viral stock is then added to the wells in a volume of 25 μL, bringing the total volume of each well to 100 μL. Each 96-well plate has a control column of 6 wells with cells and virus but no compound (negative control, max CPE), a column with cells but no compound or virus (positive control, minimum CPE), and a column with no cells or virus or compound (background plate/reagent control). The control wells with cells but no virus are given an additional 25 uL of growth media containing an equal quantity of sucrose as those wells receiving the viral stock in order to keep consistent in media and volume conditions. The outer wells of the plate are filled with 125 μL of growth media to act as a thermal and evaporative moat around the test wells. Following a 4-day incubation period, the plates are read using ATPlite (50 uL added per well), which quantifies the amount of ATP (a measure of cell health) present in each well. Assay plates are read using the Envision luminometer.

For `O=C1Nc2cccnc2C(c2ccccc2)=NC1Nc1nnc(-c2ccccc2)o1` (centres undefined), the concentration for a half-maximal effect (EC50) (HEp-2) is greater than 800 nM.
On the same count and under the same terms, in the case of `O=C(NC1N=C(c2ccccc2)c2ccsc2NC1=O)OCc1ccccc1` (centres undefined) it was 600 nM; in that of `O=C1Nc2cnccc2C(c2ccccc2)=NC1Nc1nnc(-c2ccc(F)cc2)o1` (centres undefined), greater than 800 nM.
`Cc1sc2c(c1C)C(c1ccccc1)=NC(Nc1nnc(-c3ncc(C(F)(F)F)cc3N3CCOCC3)o1)C(=O)N2` (centres undefined) yielded an EC50 greater than 800 nM. For the setting “HEp-2”, this molecule gave an EC50 of 600 nM.
For `O=C1Nc2ncccc2C(c2ccccc2)=NC1Nc1nnc(-c2ccc(F)cc2)o1` (centres undefined), the EC50 (HEp-2) was greater than 800 nM.
As for `NC1N=C(c2ccccc2)c2sccc2NC1=O` (centres undefined), for the setting “HEp-2”, the midpoint of the response, the EC50, lay at 600 nM. That is a sub-micromolar value.
Molecule `Cc1cc(C(=O)c2ccccc2)c(N)s1` displayed a concentration for a half-maximal effect (EC50) greater than 800 nM. The molecule further returned an EC50 (HEp-2) of less than 400 nM.
